Laboratory results: patent US20250059174A1, “Pharmaceutical Compounds and Compositions as C-Kit Kinase Inhibitors” (Enanta Pharmaceuticals, Inc., priority 2023, published 2025)
pEC50, pIC50: −log10 of the molar value.

Columns and labels:
[1] = target: Recombinant human c-KIT kinase (Homo sapiens (Human), UniProt P10721); test: c-KIT kinase chemiluminescence assay (ADP-Glo); format: biochemical; conditions: ATP 50 μM
How it was run: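 ADP formed by c-KIT on polyEY over 2 h at RT (after 30 min enzyme preincubation; Tris pH 7.5, MgCl2, BSA, DTT buffer) was detected by ADP-Glo luminescence. IC50 and Hill slope were fitted to control-normalized activity across compound concentrations.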

[2] = test system: M-07e cells; test: M-07e cellular assay (SCF-mediated cell proliferation); format: cell-based; conditions: Homo sapiens, 72 hours, CellTiter Glo
How it was run: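 EC50 values reflect inhibition of SCF-driven proliferation, with SCF at EC90 and a 72 h compound exposure, measured as CellTiter Glo luminescence. Growth is scaled between no-SCF (0%) and untreated (100%) wells.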

Recombinant human c-KIT kinase, sequence (P10721 26-976): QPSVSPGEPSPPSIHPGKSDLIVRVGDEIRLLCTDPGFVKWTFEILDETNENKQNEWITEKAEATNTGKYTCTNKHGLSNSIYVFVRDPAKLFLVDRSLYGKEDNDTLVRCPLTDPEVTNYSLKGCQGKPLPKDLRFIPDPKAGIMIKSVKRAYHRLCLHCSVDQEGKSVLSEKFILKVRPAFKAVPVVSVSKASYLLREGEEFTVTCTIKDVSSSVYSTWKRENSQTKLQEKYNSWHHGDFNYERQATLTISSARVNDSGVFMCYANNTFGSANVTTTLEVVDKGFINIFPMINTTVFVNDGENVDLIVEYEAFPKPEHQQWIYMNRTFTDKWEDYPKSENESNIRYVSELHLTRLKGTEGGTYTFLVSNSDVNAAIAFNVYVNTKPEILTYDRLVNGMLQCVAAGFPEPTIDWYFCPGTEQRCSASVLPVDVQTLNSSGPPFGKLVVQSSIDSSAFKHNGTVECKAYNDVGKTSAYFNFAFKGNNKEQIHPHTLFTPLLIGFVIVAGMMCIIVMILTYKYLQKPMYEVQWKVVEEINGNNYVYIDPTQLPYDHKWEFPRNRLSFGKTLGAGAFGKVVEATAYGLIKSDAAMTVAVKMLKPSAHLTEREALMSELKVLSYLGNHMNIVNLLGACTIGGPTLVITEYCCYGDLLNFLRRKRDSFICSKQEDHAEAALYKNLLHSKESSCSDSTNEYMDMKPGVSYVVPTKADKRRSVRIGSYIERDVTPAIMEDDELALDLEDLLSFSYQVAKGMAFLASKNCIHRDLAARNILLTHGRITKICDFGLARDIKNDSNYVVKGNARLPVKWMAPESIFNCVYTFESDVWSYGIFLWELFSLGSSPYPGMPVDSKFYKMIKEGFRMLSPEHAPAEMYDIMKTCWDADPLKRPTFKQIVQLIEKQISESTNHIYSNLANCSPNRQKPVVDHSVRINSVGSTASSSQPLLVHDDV

Row | pIC50 [1] | SMILES | pEC50 [2]
1 | 6.00 to 7.00 | Cc1ccc(-c2ncc(OC(F)F)cn2)cc1NC(=O)c1cnn2ccc(N3CC4(COC4)C3)cc12 [Example 338] | > 7.00
2 | < 6.00 | Cc1nnc(N2CC(c3nc(-c4cnc(C)c(NC(=O)c5cnn6ccc(N7CC8(C7)CC(O)(C(F)F)C8)cc56)c4)no3)C2)o1 [Example 281-70] | < 6.00
3 | 6.00 to 7.00 | Cc1sc(-c2noc([C@H]3C[C@@H]3F)n2)cc1NC(=O)c1cnn2ccc(N3CC4(C3)CC(O)(C(F)F)C4)cc12 [Example 281-95] | > 7.00
4 | 6.00 to 7.00 | CC(=O)N1CC(c2nc(-c3ccc(C)c(NC(=O)c4cnn5ccc(N6CC7(COC7)C6)cc45)c3)no2)C1 [Example 281-19] | < 6.00
5 | 6.00 to 7.00 | Cc1ncc(-c2noc([C@H]3CN(C(=O)C(C)(F)F)[C@@H]3C)n2)cc1NC(=O)c1cnn2ccc(N3CC4(C3)CC(O)(C(F)F)C4)cc12 [Example 281-10] | 6.00 to 7.00
6 | > 7.00 | Cc1ccc(-c2noc(N3CC(O)(C(F)(F)F)C3)n2)cc1NC(=O)c1cnn2ccc(N3CC4(COC4)C3)cc12 [Example 281-82] | > 7.00
7 | > 7.00 | Cc1ccc(-c2noc([C@H]3C[C@@H]3F)n2)cc1NC(=O)c1cnn2cc(-c3cn(CC4(C)COC4)nn3)ccc12 [Example 119] | > 7.00
8 | < 6.00 | Cc1ncc(-c2noc(C3CN(C(=O)C4CC4)C3)n2)cc1NC(=O)c1cnn2ccc(N3CC4(COC4)C3)cc12 [Example 281-87] | < 6.00
9 | < 6.00 | Cc1ccc(-c2noc([C@H]3C[C@@H]3F)n2)cc1NC(=O)c1cnn2cc(F)c(-c3c(C)nn(C(F)F)c3C)cc12 [Example 166] | 6.00 to 7.00
10 | > 7.00 | COC(=O)N1CC(c2nc(-c3cc(NC(=O)c4cnn5ccc(N6CC7(C6)CC(O)(C(F)F)C7)cc45)c(C)cc3F)no2)C1 [Example 281-52] | > 7.00
11 | 6.00 to 7.00 | Cc1ccc(-c2ncc(OC(F)(F)F)cn2)cc1NC(=O)c1cnc(-c2ccc3c(c2)CC(=O)N3)o1 [Example 360] | 6.00 to 7.00
12 | > 7.00 | Cc1ccc(-c2noc([C@H]3C[C@@H]3F)n2)cc1NC(=O)c1cnn2ccc(N3CC4(CN(CC(F)(F)F)C4)C3)cc12 [Example 177] | > 7.00
13 | 6.00 to 7.00 | Cc1ccc(-c2noc([C@H]3C[C@@H]3F)n2)cc1NC(=O)c1cnn2cc(-c3nn[nH]n3)ccc12 [Example 130] | < 6.00
14 | 6.00 to 7.00 | COC(=O)N1CC(c2nc(-c3cnc(C)c(NC(=O)c4cnn5ccc(N6CC7(COC7)C6)cc45)c3)no2)C1 [Example 281-77] | 6.00 to 7.00
15 | < 6.00 | Cc1ccc(-c2noc([C@H]3C[C@@H]3F)n2)cc1NC(=O)c1cccnn1 [Example 5] | < 6.00
16 | > 7.00 | Cc1cc(F)c(-c2noc([C@H]3C[C@@H]3C(F)F)n2)cc1NC(=O)c1cnn2ccc(N3CC4(COC4)C3)cc12 [Example 281-59] | 6.00 to 7.00
17 | > 7.00 | Cc1ccc(-c2noc([C@H]3C[C@@H]3F)n2)cc1NC(=O)c1cnc(-c2ccc3[nH]c(=O)ccc3c2)o1 [Example 308-14] | > 7.00
18 | < 6.00 | Cc1ncc(-c2noc(C3(F)CN(C(=O)OC(C)(C)C)C3)n2)cc1NC(=O)c1cnn2ccc(N3CC4(C3)CC(O)(C(F)F)C4)cc12 [Example 281-101] | 6.00 to 7.00
19 | 6.00 to 7.00 | O=C(Nc1cc(-c2noc([C@H]3C[C@@H]3F)n2)ccc1C(F)F)c1cnn2ccc(N3CC4(C3)CC(O)(C(F)F)C4)cc12 [Example 281-118] | > 7.00
20 | 6.00 to 7.00 | Cc1ccc(-c2noc([C@H]3C[C@@H]3F)n2)cc1NC(=O)c1cnc(-c2ccc(N3CC4(COC4)C3)cc2)o1 [Example 297] | 6.00 to 7.00

Row | pIC50 [1] | SMILES | pEC50 [2]
21 | < 6.00 | Cc1cc(F)c(-c2noc([C@H]3C[C@@H]3F)n2)cc1NC(=O)c1cnc(-c2ccc3c(cnn3C(=O)OC(C)(C)C)c2)o1 [Example 308-10] | 6.00 to 7.00
22 | > 7.00 | CCC1(O)CC2(CN(c3ccn4ncc(C(=O)Nc5cc(-c6noc([C@H]7C[C@@H]7F)n6)ccc5C)c4c3)C2)C1 [Example 240] | > 7.00
23 | > 7.00 | COC(=O)N1CC(c2nc(-c3cc(NC(=O)c4cnn5ccc(N6CC7(COC7)C6)cc45)c(C)cc3F)no2)C1 [Example 281-48] | 6.00 to 7.00
24 | 6.00 to 7.00 | Cc1ccc(-c2noc([C@H]3C[C@@H]3F)n2)cc1NC(=O)c1cnn2ccncc12 [Example 15] | 6.00 to 7.00
25 | < 6.00 | Cc1cc(C)n(-c2ncc(C(=O)Nc3cc(-c4noc([C@H]5C[C@@H]5F)n4)ccc3C)o2)n1 [Example 308-6] | < 6.00
26 | 6.00 to 7.00 | Cc1ccc(-c2noc([C@H]3C[C@@H]3F)n2)cc1NC(=O)c1cnc2n1C(C)(C)c1ccccc1-2 [Example 105] | 6.00 to 7.00
27 | 6.00 to 7.00 | Cc1ccc(-c2noc(C3CN(C(=O)[C@H]4C[C@@H]4F)C3)n2)cc1NC(=O)c1cnn2ccc(N3CC4(COC4)C3)cc12 [Example 281-32] | 6.00 to 7.00
28 | > 7.00 | Cc1ccc(-c2noc([C@H]3C[C@@H]3F)n2)cc1NC(=O)c1cnn2ccc(Br)cc12 [Example 42, 5-bromo-N-(5-(5-((1R,2S)-2-fluorocyclopropyl)-1,2,4-oxadiazol-3-yl)-2-methylphenyl)pyrazolo[1,5-a]pyridine-3-carboxamide] | 6.00 to 7.00
29 | > 7.00 | COC(=O)N1CCC(c2nc(-c3ccc(C)c(NC(=O)c4cnn5ccc(N6CC7(C6)CC(O)(C(F)F)C7)cc45)c3)no2)CC1 [Example 281-134] | > 7.00
30 | > 7.00 | Cc1ccc(-c2ncc(C3CC3)cn2)cc1NC(=O)c1cnn2ccc(N3CC4(C3)CC(O)(C(F)F)C4)cc12 [Example 339] | > 7.00
31 | 6.00 to 7.00 | CC(=O)Nc1nc(C)c(-c2ccn3ncc(C(=O)Nc4cc(-c5noc([C@H]6C[C@@H]6F)n5)ccc4C)c3c2)c(C)n1 [Example 171-31] | > 7.00
32 | > 7.00 | Cc1ccc(-c2noc(C3CN(CC(F)(F)F)C3)n2)cc1NC(=O)c1cnn2ccc(N3CC4(COC4)C3)cc12 [Example 281-8] | > 7.00
33 | > 7.00 | Cc1ccc(-c2noc([C@H]3C[C@@H]3F)n2)cc1NC(=O)c1cnn2ccc(N3C[C@@H](CS(C)(=O)=O)[C@@H]3C)cc12 [Example 174] | > 7.00
34 | > 7.00 | Cc1ccc(-c2noc([C@H]3C[C@@H]3F)n2)cc1NC(=O)c1cnn2ccc(N3CC4(CC(=O)C4)C3)cc12 [Example 231] | > 7.00
35 | < 6.00 | Cc1sc(-c2noc(C3CN(C(=O)[C@H]4C[C@@H]4F)C3)n2)cc1NC(=O)c1cnn2ccc(N3CC4(COC4)C3)cc12 [Example 281-126] | < 6.00
36 | > 7.00 | Cc1ccc(-c2ccc(C(C)C)cn2)cc1NC(=O)c1cnn2ccc(N3CC4(COC4)C3)cc12 [Example 349] | > 7.00
37 | > 7.00 | COC(=O)N1CC(c2nc(-c3ccc(C)c(NC(=O)c4cnn5cc(-c6cn(C(F)F)nn6)ccc45)c3)no2)C1 [Example 132-15] | > 7.00
38 | > 7.00 | Cc1ccc(-c2noc([C@H]3C[C@@H]3F)n2)cc1NC(=O)c1cnn2ccc(-c3ccc(N4CCOCC4)nc3C)cc12 [Example 171-18] | > 7.00
39 | < 6.00 | Cc1sc(-c2noc(C3CN(C(=O)OC(C)(C)C)C3)n2)cc1NC(=O)c1cnn2ccc(N3CC4(C3)CC(O)(C(F)F)C4)cc12 [Example 281-115] | < 6.00
